According to patent US9630958B2, “Triazine compounds” (Sphaera Pharma Pte. Ltd., priority 2012, dated 2017):

What was measured:
[1] = target: T1, PI3 Kinase alpha (p110 alpha/p85 alpha) (Homo sapiens, UniProt P42336); test: PI3K TR-FRET assay (Transcreener ADP2); format: biochemical; settings: for IC50: PI3K alpha, 1 μM ATP, 50 μM PIP2; for inhibition at 1 µM: 1 uM compound, read-out: PI3K % Inhib@1 uM
T1 construct: purchased Invitrogen
Summary of the method: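 p110α/p85α with diC8 PIP2 (50 μM) and 1 μM ATP in 50 mM HEPES pH 7.4, MgCl2, CHAPS, DTT, EGTA; 1 h at room temperature. ADP detected by Transcreener ADP2 TR-FRET (665/615 nm ratio), converted to product via ADP-ATP standard curve; IC50 from four-parameter fit of % inhibition.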

Recombinant mTOR (FRAP1) = target: T2, Recombinant mTOR (FRAP1) (Homo sapiens, UniProt P42345); test: mTOR in vitro kinase assay (TR-FRET, phosphorylation of GFP-4E-BP1); format: biochemical; settings: for inhibition at 1 µM: 1 uM compound, read-out: mTOR % Inhib@1 uM; for IC50: 8 μM ATP, 400 nM GFP-4E-BP1
T2 construct: purchased Invitrogen
Summary of the method: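 Recombinant human mTOR with GFP-4E-BP1 substrate at 400 nM and 8 μM ATP, 1 h at room temperature, then quenched with 10 mM EDTA plus 2 nM Tb-anti-p4E-BP1 (pThr46) for 1 h. TR-FRET 520/486 nm ratio fitted against inhibitor concentration by four-parameter sigmoidal regression.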

T2 sequence (P42345 1360-2549 limits assumed): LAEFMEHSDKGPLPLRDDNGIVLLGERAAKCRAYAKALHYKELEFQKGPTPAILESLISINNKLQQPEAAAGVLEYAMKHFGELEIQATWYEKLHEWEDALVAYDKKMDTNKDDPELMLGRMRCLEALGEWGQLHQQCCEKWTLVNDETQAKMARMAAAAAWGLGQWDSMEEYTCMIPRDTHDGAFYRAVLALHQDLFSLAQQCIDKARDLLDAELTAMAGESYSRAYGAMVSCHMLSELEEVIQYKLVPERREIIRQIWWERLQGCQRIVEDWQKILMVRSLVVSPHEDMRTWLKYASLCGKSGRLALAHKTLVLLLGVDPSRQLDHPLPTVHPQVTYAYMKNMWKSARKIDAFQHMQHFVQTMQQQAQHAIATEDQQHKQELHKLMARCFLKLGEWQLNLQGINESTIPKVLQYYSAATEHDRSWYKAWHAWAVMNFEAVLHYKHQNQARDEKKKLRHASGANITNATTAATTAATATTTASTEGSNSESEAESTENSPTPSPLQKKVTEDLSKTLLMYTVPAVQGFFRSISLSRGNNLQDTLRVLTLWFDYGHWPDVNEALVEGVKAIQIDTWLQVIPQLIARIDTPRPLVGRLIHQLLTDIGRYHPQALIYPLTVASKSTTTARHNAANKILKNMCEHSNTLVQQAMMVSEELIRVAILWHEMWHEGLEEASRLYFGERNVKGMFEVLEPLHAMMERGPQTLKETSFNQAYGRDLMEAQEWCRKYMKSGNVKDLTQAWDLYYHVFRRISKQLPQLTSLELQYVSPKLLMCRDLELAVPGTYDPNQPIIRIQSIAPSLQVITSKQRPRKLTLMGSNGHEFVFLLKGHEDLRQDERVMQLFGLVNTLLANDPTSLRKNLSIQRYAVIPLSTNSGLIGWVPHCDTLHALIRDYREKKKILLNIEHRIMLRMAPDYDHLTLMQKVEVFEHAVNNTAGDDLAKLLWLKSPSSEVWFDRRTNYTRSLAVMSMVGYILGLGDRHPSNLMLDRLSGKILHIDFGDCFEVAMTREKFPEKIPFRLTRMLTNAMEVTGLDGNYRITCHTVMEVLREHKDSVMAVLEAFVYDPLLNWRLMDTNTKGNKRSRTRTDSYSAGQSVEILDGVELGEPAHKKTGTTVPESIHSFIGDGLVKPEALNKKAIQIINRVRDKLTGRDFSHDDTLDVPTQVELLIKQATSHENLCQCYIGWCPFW
T1 sequence (P42336 whole entry): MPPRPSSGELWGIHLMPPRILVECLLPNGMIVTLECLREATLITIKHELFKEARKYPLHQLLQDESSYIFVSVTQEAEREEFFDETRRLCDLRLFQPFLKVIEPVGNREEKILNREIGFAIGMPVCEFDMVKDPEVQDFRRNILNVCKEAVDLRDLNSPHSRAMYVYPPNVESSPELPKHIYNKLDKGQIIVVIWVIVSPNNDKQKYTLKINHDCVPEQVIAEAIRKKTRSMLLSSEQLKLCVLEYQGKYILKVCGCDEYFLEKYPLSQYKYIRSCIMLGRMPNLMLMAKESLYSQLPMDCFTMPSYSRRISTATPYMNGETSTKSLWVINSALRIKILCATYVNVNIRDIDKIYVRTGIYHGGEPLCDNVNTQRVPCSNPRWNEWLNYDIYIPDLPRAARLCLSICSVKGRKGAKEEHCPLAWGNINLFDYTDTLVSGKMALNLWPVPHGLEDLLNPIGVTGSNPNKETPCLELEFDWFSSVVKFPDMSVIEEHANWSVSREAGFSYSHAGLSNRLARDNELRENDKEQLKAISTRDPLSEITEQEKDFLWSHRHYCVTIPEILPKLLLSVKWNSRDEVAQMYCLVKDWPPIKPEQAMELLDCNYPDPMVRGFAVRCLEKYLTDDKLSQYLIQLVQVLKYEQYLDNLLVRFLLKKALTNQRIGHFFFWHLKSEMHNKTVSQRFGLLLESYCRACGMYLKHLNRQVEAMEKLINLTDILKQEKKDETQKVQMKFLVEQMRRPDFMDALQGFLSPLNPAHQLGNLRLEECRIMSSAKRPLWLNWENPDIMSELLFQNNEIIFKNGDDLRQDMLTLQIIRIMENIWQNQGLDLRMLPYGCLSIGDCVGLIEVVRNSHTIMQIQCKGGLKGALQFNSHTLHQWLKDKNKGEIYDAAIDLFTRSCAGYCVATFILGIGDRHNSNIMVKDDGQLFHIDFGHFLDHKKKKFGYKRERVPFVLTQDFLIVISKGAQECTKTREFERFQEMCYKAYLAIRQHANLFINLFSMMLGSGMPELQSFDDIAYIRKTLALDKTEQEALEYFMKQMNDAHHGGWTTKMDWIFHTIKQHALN
T1 sequence (P27986 whole entry partner): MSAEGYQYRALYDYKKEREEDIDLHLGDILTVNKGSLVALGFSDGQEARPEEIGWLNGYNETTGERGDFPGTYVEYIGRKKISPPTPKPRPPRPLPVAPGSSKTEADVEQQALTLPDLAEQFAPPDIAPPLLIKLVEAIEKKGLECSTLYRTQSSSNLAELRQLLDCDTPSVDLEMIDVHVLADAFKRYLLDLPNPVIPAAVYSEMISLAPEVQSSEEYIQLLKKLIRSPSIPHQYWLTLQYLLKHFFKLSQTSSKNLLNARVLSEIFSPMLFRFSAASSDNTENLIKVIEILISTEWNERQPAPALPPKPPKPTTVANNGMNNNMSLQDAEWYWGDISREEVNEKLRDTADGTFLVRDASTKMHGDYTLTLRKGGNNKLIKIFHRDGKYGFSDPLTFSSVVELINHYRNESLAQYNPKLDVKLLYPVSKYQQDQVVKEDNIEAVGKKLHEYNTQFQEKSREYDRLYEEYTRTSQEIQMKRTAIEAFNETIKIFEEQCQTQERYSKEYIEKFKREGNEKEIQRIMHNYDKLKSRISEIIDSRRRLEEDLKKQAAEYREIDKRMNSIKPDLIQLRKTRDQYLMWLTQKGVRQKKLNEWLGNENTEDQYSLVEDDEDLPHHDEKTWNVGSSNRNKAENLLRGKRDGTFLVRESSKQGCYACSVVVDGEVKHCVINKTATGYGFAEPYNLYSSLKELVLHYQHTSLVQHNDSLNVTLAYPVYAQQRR

| SMILES | IC50 [1] | inhibition at 1 µM (Recombinant mTOR (FRAP1)) | IC50 (Recombinant mTOR (FRAP1)) | inhibition at 1 µM [1] |
| --- | --- | --- | --- | --- |
| C[C@H]1COCCN1c1nc(O[C@H]2CC[C@H](C(=O)N(C)C)CC2)nc(-c2cnc(N)s2)n1 [Compound 10139, (1S,4r)-4-(4-(2-aminothiazol-5-yl)-6-((S)-3-methylmorpholino)-1,3,5-triazin-2-yloxy)-N,N-dimethylcyclohexanecarboxamide] | < 1000 nM | > 50% | < 1000 nM |  |
| C[C@@H]1COC[C@H](C)N1c1nc(Oc2ccc(C(=O)N(C)C)cc2)nc(-c2cnc(N)s2)n1 [Compound 10079, 4-((4-(2-Aminothiazol-5-yl)-6-((3S,5R)-3,5-dimethylmorpholino)-1,3,5-triazin-2-yl)oxy)-N,N-dimethybenzamide] | > 1000 nM |  | < 1000 nM | < 50% |
| CNC(=O)Nc1ncc(-c2nc(NC)nc(N3CCOC[C@@H]3C)n2)s1 [Compound 10135, 1-methyl-3-(5-(4-(methylamino)-6-((S)-3-methylmorpholino)-1,3,5-triazin-2-yl)thiazol-2-yl)urea] |  | < 50% |  | < 50% |
| C[C@@H]1CO[C@@H](C)CN1c1nc(Oc2ccc(C(=O)N(C)C)cc2F)nc(-c2ccc3[nH]ncc3c2)n1 [Compound 10161, 4-(4-(1H-indazol-5-yl)-6-((2S,5R)-2,5-dimethylmorpholino)-1,3,5-triazin-2-yloxy)-3-fluoro-N,N-dimethylbenzamide] | > 10000 nM |  | < 1000 nM |  |
| CS(=O)(=O)N1CCC(COc2nc(-c3cnc(N)s3)nc(N3CCOCC3)n2)C1 (stereo not drawn) [Compound 10197, 5-(4-((1-(methylsulfonyl)pyrrolidin-3-yl)methoxy)-6-morpholino-1,3,5-triazin-2-yl)thiazol-2-amine] | < 1000 nM | < 50% |  |  |
| C[C@H]1COCCN1c1nc(Oc2ccc(C(=O)N(C)C)cc2)nc(-c2cnc(NC(=O)Nc3cccnc3)s2)n1 [Compound 10092] | < 1000 nM |  | < 1000 nM | < 50% |
| C[C@H]1CN(c2nc(Oc3ccc(C(=O)N(C)C)cc3)nc(-c3cnc(N)s3)n2)CCO1 [Compound 10127, 4-(4-(2-aminothiazol-5-yl)-6-((S)-2-methylmorpholino)-1,3,5-triazin-2-yloxy)-N,N-dimethylbenzamide] | < 1000 nM | > 50% | < 1000 nM | > 50% |
| C[C@H]1CN(c2nc(Oc3ccc(C(=O)N(C)C)cc3F)nc(-c3cnc4[nH]ccc4c3)n2)[C@@H](C)CO1 [Compound 10104, 4-((4-((2S,5S)-2,5-dimethylmorpholino)-6-(1H-pyrrolo[2,3-b]pyridine-5-yl)-1,3,5-triazin-2-yl)oxy)-3-fluoro-N,N-dimethylbenzamide] | < 1000 nM |  | < 1000 nM |  |
| C[C@H]1COCCN1c1nc(Oc2ccc(C(=O)N(C)C)cc2F)nc(-c2ccc3[nH]ncc3c2)n1 [Compound 10051, (S)-4-((4-(1H-indazol-5-yl)-6-(3-methylmorpholino)-1,3,5-triazin-2-yl)oxy)-3-fluoro-N,N-dimethylbenzamide] | > 1000 nM | > 50% | < 1000 nM |  |
| Cc1nc(N)sc1-c1nc(Oc2ccc(C(=O)N(C)C)cc2)nc(N2CCOCC2)n1 [Compound 10199, 4-((4-(2-amino-4-methylthiazol-5-yl)-6-morpholino-1,3,5-triazin-2-yl)oxy)-N,N-dimethylbenzamide] | < 1000 nM | < 50% |  |  |
| CN(C)C(=O)c1ccc(Oc2nc(-c3cnc(N)[nH]3)nc(N3CCOCC3)n2)cc1 [Compound 10124, 4-(4-(2-amino-1H-imidazol-5-yl)-6-morpholino-1,3,5-triazin-2-yloxy)-N,N-dimethylbenzamide] |  | < 50% |  | < 50% |
| CN(C)C(=O)c1ccc(Oc2nc(-c3ccc(N)nc3)nc(N3CC4CCC(C3)O4)n2)c(F)c1 [Compound 10095] | > 1000 nM |  | < 1000 nM | < 50% |
| C[C@H]1COCCN1c1nc(OC2CCN(C(=O)N(C)C)CC2)nc(-c2cnc(N)s2)n1 [Compound 10137, 4-(4-(2-aminothiazol-5-yl)-6-((S)-3-methylmorpholino)-1,3,5-triazin-2-yloxy)-N,N-dimethylpiperidine-1-carboxamide] | < 1000 nM | > 50% | < 1000 nM |  |
| Nc1ccc(-c2nc(CO)nc(N3CCOCC3)n2)cn1 [Compound 10176, (4-(6-aminopyridin-3-yl)-6-morpholino-1,3,5-triazin-2-yl)methanol] | < 1000 nM | < 50% |  |  |
